According to US7718360B2, “Composition (RCUD) for protecting and/or repairing DNA from oxidative damages and a method thereof” (Council of Scientific & Industrial Research, priority 2003, dated 2010):
Numbered stars: 1 amine (or outer) side, 2 acyl side, 3 side chain; on linkers, the order of the positions; unused ones are H or OH. Bridge positions count the residues as written; N and C are the ends. Square brackets hold non-standard residues; d marks the D form. Peptide text beside a SMILES is read from it. I, II: the chains in the order shown. Actinocin(9to1) = Cc1c2oc3c(C)ccc(C(=O)[*:1])c3nc-2c(C(=O)[*:2])c(N)c1=O; NMeV = CN[C@H](C(=O)O)C(C)C; Sar = CNCC(=O)O

Experiments:
Type in all cases: cell-based
[1] = test system: polymorphonuclear leucocytes; assay: DNA damage induced by actinomycin D and protection by redistilled cow's urine distillate; conditions: Table 2; Actinomycin D alone (positive control)
Description: (§1) To 5 ml of whole blood 15 ml of solution A is added, mixed well and kept between 2 and 4° C. for 30 minutes. The mixture was centrifuged at 800×g for 10 minutes. The supernatant is discarded, the pellet was washed with balanced salt solution and washing is discarded after centrifugation at 800×g for 10 minutes. This step was done twice. The pellet comprises of peripheral polymorphonuclear leukocytes (PMNs) which are suspended in predetermined amount of solution B.
(§2) The volume in each tube was made up to 2 ml by adding BSS solution. The mixture is incubated at 37° C. for 1 hr in 5% CO2 incubator with 95% humidity. After incubation, 5 ml of ice cold 0.9% NaCl was added in each tube, centrifuged at 800 g for 10 minutes and the supernatant is discarded. To the pellet in each tube 1.5 ml of solution B was added. The tubes (control and three experimental) are mixed thoroughly and the mixture was equally distributed in the volume of 0.2 ml in 3 tubes designated as B, P and T, then 200 μl of solution C was added. The three tubes B, P & T, were kept in cold (0° C.) for 10 minutes after mixing well in order to lyse the cells. To tube T 400 μl of solution E was added. Thereafter, 200 μl of solution D was added to all the tubes B, P and T. The tubes were kept at 0° C. for 30 minutes. Thereafter, contents of the B tube was sonicated for 30 second three times. B, P and T were further incubated at 20° C. for 1 hr. To B and P tubes 400 μl of solution E was added and the tubes were incubated at 0° C. for 10 minutes. 1.5 ml of solution F are added to all the tubes, homogenized on a vortex shaker and subjected to fluorescence spectrophotometric analyses within 15 minutes with 520 nm excitation and at 590 nm emission. The percentage of double stranded DNA remaining was determined using the following formula. [Krishnamurthi et al. (2003) & Bimboim & Jevcak (1981)].
(§3) [formula] • Where P, B and T are the fluorescence emissions at 590 nm.
(§4) One ml of PMNs suspended in solution B containing around 1×10^6 cells were taken in four tubes A, B, C and D. To tube B, 60 μl of redistilled cow urine distillate (RCUD) was added and incubated at 37° C. for 10 minutes.
(§5) To tube A only 60 μl of RCUD was added; the volume was made up with BSS. The mixture was incubated at 37° C. for 1 hr in 5% CO2 incubator with 95% humidity. The rest of the protocol was followed as described under C and D.

[2] = test system: polymorphonuclear leucocytes; assay: DNA damage induced by hydrogen peroxide (H2O2) and protection by redistilled cow's urine distillate
Description: as §1
as §2, with “formula.” for “formula. [Krishnamurthi et al. (2003) & Bimboim & Jevcak (1981)].”
as §3, §4, §5

[3] = test system: polymorphonuclear leucocytes; assay: DNA damage induced by manganese dioxide (MnO2) and protection by redistilled cow's urine distillate; conditions: Table 4; MnO2 20 μl alone (positive control)
Description: as §1, §2, §3, §4, §5

[4] = Table 3, H2O2 alone (positive control)
[5] = Table 5, H2O2 10 μl alone (positive control)
[6] = Table 6, H2O2 10 μl alone (positive control)

## Cc1c2oc3c(C)ccc(C(=O)N[C@@H]4C(=O)N[C@H](C(C)C)C(=O)N5CCC[C@H]5C(=O)N(C)CC(=O)N(C)[C@@H](C(C)C)C(=O)O[C@@H]4C)c3nc-2c(C(=O)N[C@@H]2C(=O)N[C@H](C(C)C)C(=O)N3CCC[C@H]3C(=O)N(C)CC(=O)N(C)[C@@H](C(C)C)C(=O)O[C@@H]2C)c(N)c1=O [Actinomycin D] (I: T[dV]P[Sar][NMeV] / II: T[dV]P[Sar][NMeV]; ester I:1-I:C, II:1-II:C; linker I:N-II:N via Actinocin(9to1))
[1]
  Mean, percentage of double stranded DNA remaining: 38 percentage
  Set I, percentage of double stranded DNA remaining: 40 percentage
  Set II, percentage of double stranded DNA remaining: 38 percentage
  Set III, percentage of double stranded DNA remaining: 44 percentage
  Set IV, percentage of double stranded DNA remaining: 28 percentage
  Set V, percentage of double stranded DNA remaining: 39 percentage

## OO [Hydrogen Peroxide (H2O2), Hydrogen Peroxide]
[2]; [4]
  Mean, percentage of double stranded DNA remaining: 31 percentage
  Set I, percentage of double stranded DNA remaining: 20 percentage
  Set II, percentage of double stranded DNA remaining: 29 percentage
  Set III, percentage of double stranded DNA remaining: 24 percentage
  Set IV, percentage of double stranded DNA remaining: 43 percentage
  Set V, percentage of double stranded DNA remaining: 38 percentage
[2]; [5]
  Mean, percentage of double stranded DNA remaining: 26 percentage
  Set I, percentage of double stranded DNA remaining: 24 percentage
  Set II, percentage of double stranded DNA remaining: 24 percentage
  Set III, percentage of double stranded DNA remaining: 24 percentage
  Set IV, percentage of double stranded DNA remaining: 33 percentage
  Set V, percentage of double stranded DNA remaining: 24 percentage
[2]; [6]
  Mean, percentage of double stranded DNA remaining: 26 percentage
  Set I, percentage of double stranded DNA remaining: 24 percentage
  Set II, percentage of double stranded DNA remaining: 24 percentage
  Set III, percentage of double stranded DNA remaining: 24 percentage
  Set IV, percentage of double stranded DNA remaining: 33 percentage
  Set V, percentage of double stranded DNA remaining: 24 percentage

## [O]=[Mn]=[O] [Manganese dioxide (MnO2), Manganese dioxide]
[3]
  Mean, percentage of double stranded DNA remaining: 21 percentage
  Set I, percentage of double stranded DNA remaining: 22 percentage
  Set II, percentage of double stranded DNA remaining: 30 percentage
  Set III, percentage of double stranded DNA remaining: 22 percentage
  Set IV, percentage of double stranded DNA remaining: 15 percentage
  Set V, percentage of double stranded DNA remaining: 16 percentage
